Data reported in publication PMC8869731, “KasQ an Epimerase Primes the Biosynthesis of Aminoglycoside Antibiotic Kasugamycin and KasF/H Acetyltransferases Inactivate Its Activity” (Biomedicines, 2022).
Values belong to the molecule of their own block, whether it stands above or below them.

Experiments:
KasF = assay: HPLC acetylation assay with KasF and AcCoA; assay type: biochemical, Streptomyces kasugaensis; details: 1 mM substrate, 0.5 mM AcCoA, 37 °C, 12 h
[1] = system: E. coli BL21 (DE3) cells with/without the kasH or kasF gene; assay: Disc diffusion assay (resistance assay); assay type: cell-based; details: disc ~5 μL of 7.6 mg/mL KSM
Experimental: KSM susceptibility and production were confirmed by disc diffusion assay. An E. coli culture was grown at 37 °C overnight and spread on an LB agar plate (pH 7.0). About 5 µL of extracted samples from Streptomyces lividans TK64 (from days 2–5) were loaded onto the paper disc. The disc was placed onto the surface of an LB agar plate and incubated at 37 °C overnight to visualize the zone of inhibition (ZOI).
For the KSM resistant assay, BL21 cells with/without the kasH or kasF gene were individually expressed and seeded on LB agar plates (pH 7.0). About 5 µL of different aminoglycoside antibiotics (amikacin, gentamicin, sisomicin, streptothricin-F, or tobramycin) were loaded onto each paper disc and placed on the surface of the LB plates. The plates were incubated 37 °C overnight to visualize the appearance of the zone of inhibition (ZOI). Note: this is a standard protocol for evaluating the effectiveness of common antibiotics, including aminoglycosides; there is no apparent impact concerning the structural integrity or biological deterioration of the selected aminoglycosides at pH 7.0 during the examining course.

KasH [2] = target: T1, KasH (Streptomyces kasugaensis, UniProt A0A0K1H2T0); assay: ITC of KasH versus ligands;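 also: isothermal titration calorimetry at 25 °C, 0.1 mM KasH in the cell titrated with 1 mM ligand over 18 injections, data fit with a one-site binding model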
Experimental: (§3) ITC analyses were carried out at 25 °C using an ITC200 microcalorimeter (MicroCal Inc., Northampton, MA, USA). […] The titration experiment contains 18 injections (2 μL for a duration of 4 s) and each injection was separated by 120 s. The distilled water was filled in the reference cell throughout all titrations. The cell stirring speed was 1000 rpm. The collected raw data were processed in Origin 7.0 (provided by MicroCal) by a non-linear least square method to a single-site binding model.

KasH [3] = target: T1, KasH; assay: HPLC acetylation assay with KasH and AcCoA; assay type: biochemical; details: 1 mM substrate, 0.5 mM AcCoA, 37 °C, 12 h
KasQ E308A = KasQ E308A (Streptomyces kasugaensis, UniProt A0A0K1H2R6, E308A); assay: biochemical; assay type: binding; details: ITC; KasQ mutant E308A
Sequence of KasQ E308A (A0A0K1H2R6 entry or part of it E308A): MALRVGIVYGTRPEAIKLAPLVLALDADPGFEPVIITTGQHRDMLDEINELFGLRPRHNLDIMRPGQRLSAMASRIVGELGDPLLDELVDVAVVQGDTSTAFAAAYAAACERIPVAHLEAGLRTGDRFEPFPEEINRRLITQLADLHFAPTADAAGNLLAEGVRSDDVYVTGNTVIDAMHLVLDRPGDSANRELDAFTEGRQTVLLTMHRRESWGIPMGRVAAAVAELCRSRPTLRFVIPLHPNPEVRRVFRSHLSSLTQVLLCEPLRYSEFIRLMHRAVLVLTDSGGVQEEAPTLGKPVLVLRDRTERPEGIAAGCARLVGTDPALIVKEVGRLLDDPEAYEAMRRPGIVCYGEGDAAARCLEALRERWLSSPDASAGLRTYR
Experimental: (§1) Site-directed mutagenesis was performed using QuikChange (Stratagene), following the manufacturer’s protocol. The wild-type KasQ plasmid (BCRC12349) was used as the template for the single mutation. All mutations were confirmed by DNA sequencing. KasQ mutants were expressed and purified with the same protocol as used for the wild-type protein.
(§2) The cell stirring speed was 1000 rpm.

KasQ Q95A = KasQ Q95A (Streptomyces kasugaensis, UniProt A0A0K1H2R6, Q95A); assay: biochemical; assay type: binding
Sequence of KasQ Q95A (A0A0K1H2R6 entry or part of it Q95A): as the sequence (A0A0K1H2R6 entry or part of it E308A) above, with Q95A counted along it
Experimental: as §1, §2

KasQ Q95E = KasQ Q95E (Streptomyces kasugaensis, UniProt A0A0K1H2R6, Q95E); assay: biochemical; assay type: binding
Sequence of KasQ Q95E (A0A0K1H2R6 entry or part of it Q95E): as the sequence (A0A0K1H2R6 entry or part of it E308A) above, with Q95E counted along it
Experimental: as §1, §2

KasQ [4] = target: T2, KasQ (Streptomyces kasugaensis, UniProt A0A0K1H2R6); assay: HPLC kinetic analysis of KasQ epimerization; assay type: biochemical; details: KasQ_WT with UDP-GlcNAc and 1 mM MgCl2, 25 mM Tris pH 8.0, 37 °C
T2 sequence (A0A0K1H2R6 entry or part of it): as the sequence (A0A0K1H2R6 entry or part of it E308A) above
Experimental: The reaction mixture was mixed by vortex and incubated at 37 °C. Reactions were stopped at six different time points (10, 30, 60, 120, 180, and 240 min) by adding equal volumes of chloroform. Precipitation was removed by centrifugation and analyzed by HPLC-LTQ-MS using HPLC method B as described above. […] The Michaelis–Menten curve of the KasQ activity was derived from the integrated peak area of each reaction.

KasQ [5] = target: T2, KasQ; assay: Isothermal titration calorimetry (ITC) of KasQ wild type versus substrates; assay type: binding; details: ITC, KasQ wild type;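 also: titration of 1 mM substrate into 0.1 mM KasQ, 18 injections spaced 120 s, data fitted to a single-site binding model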
Experimental: as §3

KasQ E308Q = KasQ E308Q (Streptomyces kasugaensis, UniProt A0A0K1H2R6, E308Q); assay type: binding; details: ITC; KasQ mutant E308Q
Sequence of KasQ E308Q (A0A0K1H2R6 entry or part of it E308Q): as the sequence (A0A0K1H2R6 entry or part of it E308A) above
Experimental: as §1, §2

[6] = target: KasQ (Streptomyces kasugaensis); assay: not stated; oligomeric state of the purified protein in solution (Figure S3: protein overexpression and purification); the method is not named in the text shown
[7] = target: the molecule itself; assay: as above

Molecule: C[C@H]1O[C@H](O[C@H]2[C@H](O)[C@@H](O)[C@@H](O)[C@H](O)[C@@H]2O)[C@@H](N)C[C@@H]1NC(=N)C(=O)O [KSM, Kasugamycin]
acetylation by KasF (KasF): partially acetylated | growth of E. coli in the presence of KSM ([1]; E. coli BL21 (DE3) carrying the kasF gene): moderate growth | growth of E. coli in the presence of KSM ([1]; E. coli BL21 (DE3) carrying the kasH gene): not affected | zone of inhibition (ZOI) ([1]; E. coli BL21 (DE3) with empty pET28a+ (no acetyltransferase gene)): clear zone of inhibition | n (KasH [2]; ITC binding stoichiometry, KasH, 50 mM MOPS pH 7.5, 100 mM NaCl): 1.0 ± 0.1 | ∆G (KasH [2]; ITC, KasH): -5.804 ± 0.4705 kcal/mol | ∆H (KasH [2]; ITC, KasH): -2.316 ± 0.4705 kcal/mol | ∆S (KasH [2]; ITC, KasH): 11.7 cal mol-1 K-1 | Kd (KasH [2]; ITC, KasH, 50 mM MOPS pH 7.5, 100 mM NaCl): 56.1 µM | binding affinity versus KasH relative to AcCoA (KasH [2]; ITC, higher than AcCoA): 2.9 fold | binding affinity versus KasH relative to CoA (KasH [2]; ITC, higher than CoA): 1.7 fold | acetylation by KasH (KasH [3]): completely acetylated

Molecule: CC(=O)NC1C(OP(=O)(O)OP(=O)(O)OCC2OC(n3ccc(=O)[nH]c3=O)C(O)C2O)OC(CO)C(O)C1O (centres unmarked) [UDP-GlcNAc 1, UDP-N-acetyl-glucosamine]
Kd (KasQ E308A): NBD | ∆G (KasQ E308A): NBD | ∆H (KasQ E308A): NBD | ∆S (KasQ E308A): NBD | Kd (KasQ Q95A): 45.2 µM | n (KasQ Q95A; ITC binding stoichiometry, KasQ mutant Q95A): 1.6 ± 0.1 | ∆G (KasQ Q95A; ITC, KasQ mutant Q95A): -5.939 ± 0.1764 kcal/mol | ∆H (KasQ Q95A; ITC, KasQ mutant Q95A): -0.7212 ± 0.1764 kcal/mol | ∆S (KasQ Q95A; ITC, KasQ mutant Q95A): 17.5 cal mol-1 K-1 | Kd (KasQ Q95E): 14.2 µM | n (KasQ Q95E; ITC binding stoichiometry, KasQ mutant Q95E): 0.7 ± 0.0 | ∆G (KasQ Q95E; ITC, KasQ mutant Q95E): -6.607 ± 0.0679 kcal/mol | ∆H (KasQ Q95E; ITC, KasQ mutant Q95E): -0.6141 ± 0.0679 kcal/mol | ∆S (KasQ Q95E; ITC, KasQ mutant Q95E): 20.1 cal mol-1 K-1 | kcat (KasQ [4]; listed as UDP-GlcNAC): 1.33 (± 0.24) s^−1 | kcat (KasQ [4]; listed as UDP-GlcNAc): 1.33 s⁻¹ | ∆G (KasQ [5]): NBD | ∆H (KasQ [5]): NBD | ∆S (KasQ [5]): NBD | Kd (KasQ [5]; 25 °C, 50 mM HEPES pH 8.0, 100 mM NaCl): NBD | Kd (KasQ E308Q): NBD | ∆G (KasQ E308Q): NBD | ∆H (KasQ E308Q): NBD | ∆S (KasQ E308Q): NBD

stoichiometry N [6]: 2
Molecule: KasQ (enzyme)

B1: KasH (enzyme, Streptomyces kasugaensis, UniProt A0A0K1H2T0 1-130, looked up)
chain: MTITYEWRGGFDNAALNALHADGFGPPIAQTDWRTRLERHSLGWVCAWEDGLIGFVNVVWDGGAHAFILDTVVARHCRSRGVGAALVAKAADEARAANCEWLHVDFEEHLRAFYFDACGFKETTAGLIAL
notes: KasH, acetyltransferase of the kasugamycin biosynthetic gene cluster, Streptomyces kasugaensis; gene amplified and cloned into pET28a+; also called acetyltransferase KasH; source: E. coli BL21, purified (Ni-agarose, gel filtration)
stoichiometry N [7]: 2
